Assay results: PubChem BioAssay AID180 (DTP/NCI, 2004)
Where “and” joins values, the source holds several entries; their conditions need not be identical. Equal entries are not always repeated.

Test system: BDF1 mice, Adenocarcinoma 755 s.c., tumor weight T/C
Test: NCI In Vivo Anticancer Drug Screen. Data for tumor model Adenocarcinoma 755 (subcutaneous) in B6D2F1 (BDF1) mice
Settings: endpoint: mean tumor weight, schedule: Q01DX011 (ip), higher = larger tumour
Method in brief: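 Tumor-bearing mice receive test compound while controls get vehicle alone. Antitumor effect is scored from survival or tumor dimensions as a T/C quotient.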

[1] = dose: 7.5 mg/kg/injection, vehicle: methylcellulose (MC)
[2] = dose: 15.0 mg/kg/injection, vehicle: methylcellulose (MC)
[3] = dose: 30.0 mg/kg/injection, vehicle: methylcellulose (MC)
[4] = dose: 25.0 mg/kg/injection, vehicle: carboxymethylcellulose (CMC)
[5] = dose: 50.0 mg/kg/injection, vehicle: carboxymethylcellulose (CMC)
[6] = dose: 30.0 mg/kg/injection, vehicle: carboxymethylcellulose (CMC)
[7] = dose: 60.0 mg/kg/injection, vehicle: carboxymethylcellulose (CMC)
[8] = dose: 120.0 mg/kg/injection, vehicle: carboxymethylcellulose (CMC)
[9] = dose: 240.0 mg/kg/injection, vehicle: carboxymethylcellulose (CMC)

## CN(C)CCCCl
dose: 25.0 mg/kg/injection, vehicle: other
  T/C: 81 % of control
dose: 50.0 mg/kg/injection, vehicle: other
  T/C: 83 % of control
dose: 100.0 mg/kg/injection, vehicle: other
  T/C: 98 % of control

## Nc1nc(SCc2ccccc2)c2ncn(C3CCCO3)c2n1 (configuration not stated)
dose: 1.8 mg/kg/injection, vehicle: methylcellulose (MC)
  T/C: 68 % of control
dose: 3.7 mg/kg/injection, vehicle: methylcellulose (MC)
  T/C: 45 % of control
[1]
  T/C: 2 % of control and 5 % of control
dose: 20.0 mg/kg/injection, vehicle: methylcellulose (MC)
  T/C: 2 % of control

## CCCCCCCCCCCCCCCCCCNC
dose: 14.0 mg/kg/injection, vehicle: carboxymethylcellulose (CMC)
  T/C: 77 % of control

## Nc1nc(I)c2[nH]cnc2n1
[2]
  T/C: 52 % of control
[3]
  T/C: 109 % of control
dose: 60.0 mg/kg/injection, vehicle: methylcellulose (MC)
  T/C: 41 % of control
dose: 120.0 mg/kg/injection, vehicle: methylcellulose (MC)
  T/C: 44 % of control

## C=CCn1cnc2c(Cl)ncnc21
[4]
  T/C: 10 % of control
[5]
  T/C: 6 % of control

## CNc1nc(SCc2ccc(Cl)cc2Cl)ncc1C
[2]
  T/C: 84 % of control
dose: 31.0 mg/kg/injection, vehicle: methylcellulose (MC)
  T/C: 69 % of control
dose: 62.0 mg/kg/injection, vehicle: methylcellulose (MC)
  T/C: 67 % of control
dose: 125.0 mg/kg/injection, vehicle: methylcellulose (MC)
  T/C: 73 % of control
dose: 250.0 mg/kg/injection, vehicle: methylcellulose (MC)
  T/C: 61 % of control

## CN(Cc1ccccc1)N=Nc1n[nH]nc1C(N)=O
[5]
  T/C: 75 % of control
dose: 100.0 mg/kg/injection, vehicle: carboxymethylcellulose (CMC)
  T/C: 91 % of control
dose: 200.0 mg/kg/injection, vehicle: carboxymethylcellulose (CMC)
  T/C: 56 % of control

## CCN(CC)CCC(=O)N1CCN(C(=O)CCN(CC)CC)CC1
dose: 3.8 mg/kg/injection, vehicle: methylcellulose (MC)
  T/C: 110 % of control
[1]
  T/C: 113 % of control
[2]
  T/C: 71 % of control
[3]
  T/C: 79 % of control
dose: 30.0 mg/kg/injection, vehicle: saline
  T/C: 119 % of control
dose: 60.0 mg/kg/injection, vehicle: saline
  T/C: 105 % of control

## CC(=O)OCC1OC(n2cnc3c(Cl)nc(Cl)nc32)C(OC(C)=O)C1OC(C)=O (configuration not stated)
[6]
  T/C: 85 % of control
[7]
  T/C: 92 % of control
[8]
  T/C: 61 % of control
[9]
  T/C: 61 % of control

## CN(C)c1ccc(/C=C/C2=[N+](C)c3ccccc3C2(C)C)cc1
dose: 2.0 mg/kg/injection, vehicle: other
  T/C: 81 % of control

## CC[C@]1(O)C[C@H]2CN(CCc3c([nH]c4ccccc34)[C@@](C(=O)OC)(c3cc4c(cc3OC)N(C)[C@H]3[C@@](O)(C(=O)OC)[C@H](OC(C)=O)[C@]5(CC)C=CCN6CC[C@]43[C@@H]65)C2)C1
dose: 0.05 mg/kg/injection, vehicle: carboxymethylcellulose (CMC)
  T/C: 68 % of control and 76 % of control
dose: 0.1 mg/kg/injection, vehicle: carboxymethylcellulose (CMC)
  T/C: 94 % of control and 87 % of control

## Cc1ccc(/C=N/Nc2nc3c([nH]2)c(=O)n(C)c(=O)n3C)cc1
[6]
  T/C: 95 % of control
[7]
  T/C: 115 % of control
[8]
  T/C: 112 % of control
[9]
  T/C: 81 % of control

## CN(C)c1nc(S(=O)(=O)N(C)C)nc2nc[nH]c12
[4]
  T/C: 115 % of control
dose: 75.0 mg/kg/injection, vehicle: carboxymethylcellulose (CMC)
  T/C: 117 % of control
dose: 225.0 mg/kg/injection, vehicle: carboxymethylcellulose (CMC)
  T/C: 95 % of control
